The test deals with T1, human GR (Homo sapiens, UniProt P04150).
T1 construct: naturally expresses the human GR; endogenous in cells
T1 sequence (P04150 1-777): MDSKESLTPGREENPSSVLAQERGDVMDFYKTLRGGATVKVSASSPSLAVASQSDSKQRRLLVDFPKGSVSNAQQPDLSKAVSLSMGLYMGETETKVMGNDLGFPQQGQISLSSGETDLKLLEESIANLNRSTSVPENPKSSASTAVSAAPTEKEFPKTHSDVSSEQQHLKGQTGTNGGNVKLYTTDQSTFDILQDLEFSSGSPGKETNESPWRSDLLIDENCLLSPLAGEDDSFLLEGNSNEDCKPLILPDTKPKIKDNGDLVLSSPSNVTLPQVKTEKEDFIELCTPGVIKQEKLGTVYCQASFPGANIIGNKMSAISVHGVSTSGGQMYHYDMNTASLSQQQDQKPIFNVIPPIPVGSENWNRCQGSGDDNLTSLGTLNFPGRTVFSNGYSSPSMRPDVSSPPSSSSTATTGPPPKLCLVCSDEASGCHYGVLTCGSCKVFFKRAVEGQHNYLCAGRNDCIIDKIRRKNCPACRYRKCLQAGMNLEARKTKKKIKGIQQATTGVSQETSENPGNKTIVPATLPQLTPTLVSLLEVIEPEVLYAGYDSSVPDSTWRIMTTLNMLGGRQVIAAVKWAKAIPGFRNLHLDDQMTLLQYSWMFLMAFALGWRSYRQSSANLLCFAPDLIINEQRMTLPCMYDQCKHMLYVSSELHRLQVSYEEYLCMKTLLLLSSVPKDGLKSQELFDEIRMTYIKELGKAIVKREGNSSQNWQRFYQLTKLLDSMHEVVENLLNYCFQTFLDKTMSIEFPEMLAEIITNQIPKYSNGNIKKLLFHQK
The test can be described thus: Trans-activation modulation of glucocorticoid receptor (GRAMMER), MMTV-LUC reporter in A549 cells. Conditions: for Emax: A549, A549 cells, read-out: Transactivation A549 Cells Grammer Emax (%); for Emax / Transactivation A549 Cells Grammer Emax (%): Emax relative to the activity obtained with 300 nM dexamethasone; for EC50 / Transactivation A549 Cells Grammer Emax (%): A549 cells; for EC50: IP = inflection point, read-out: Transactivation A549 Cells Grammer IP. In kind it is cell-based. The source says: Trans-Activation Modulation of Glucocorticoid Receptor (GRAMMER)
This assay assesses the ability of test compounds to control transcription from the MMTV-LUC reporter gene in lung adenocarcinoma A549 cells or HeLa cells, a human […] cell line that naturally expresses the human GR. The assay measures induction of a modified MMTV LTR/promoter linked to the LUC reporter gene.
The routine transient assay consists of plating 7,000-25,000 cells/well of a white, clear-bottom 96-well plate. Alternatively, 384-well plates can be used at a cell concentration of 10,000/well. The media that the cells are plated in is “exponential growth medium” which consists of phenol red-free RPMI1640 containing 10% FBS, 4 mM L-glutamine, 20 mM HEPES, 10 ug/mL human insulin, and 20 ug/mL gentamicin. Incubator conditions are 37° C. and 5% C02. The transfection is done in batch mode. The cells are trypsinized and counted to the right cell number in the proper amount of fresh media. It is then gently mixed with the FuGene6/DNA 25 mix and plated onto the 96 or 384-well plate, all the wells receive 100 uL or 40 uL, respectively, of medium+lipid/DNA complex then incubated 37° C. overnight. The transfection cocktail consists of serum-free OptiMEM, FuGene6 reagent and DNA. The manufacturer's (Roche Biochemical) protocol for cocktail setup is as follows: The lipid to DNA ratio is approximately 2.5:1 and the incubation time is 20 min at room temperature. Sixteen to 24 h after transfection, the cells are treated with dexamethasone to a final concentration of 10 nM as well as the compound of interest, such that final DMSO (vehicle) concentration is equal to or less than 1%. Each plate also contains samples that are treated with 10 nM dexamethasone alone, which is used as the 100% activity control. The cells are exposed to the compounds for 24 h. After 24 h, the cells are lysed by a Promega cell culture lysis buffer for approximately 30 min and then the luciferase activity in the extracts is assayed in the 96-well format luminometer. In 384 well format, Steady-Glo (Promega) or Steady-Lite (PerkinElmer) can be used by adding an equal volume of reagent to the media present in each well. Activity induced by 10 nM dexamethasone alone is set at 100% activity. Antagonist activity is calculated by determining the decrease in dexamethasone-induced activity in response to compound treatment relative to samples that were treated with dexamethasone alone. Results are expressed as % inhibition of 10 nM dexamethasone activity or as fold of 10 nM dexamethasone activity. This transactivation assay can be performed in an agonist and antagonist mode to identify these different activities.
Activity of test compounds is calculated as the Emax relative to the activity obtained with 300 nM dexamethasone. […] The exemplified tissue selective glucocorticoid receptor modulators of the present invention display agonist activity in this assay of greater than 5% and less than 100%, and maximal transactivation activity less then maximal transrepression activity. The action of compounds is also tested in an antagonist mode (Anti-GRAMMER) in which the cells are treated with medium containing an agonist such as 10 nM DEX and the ability of agents to inhibit the activation by an agonist is measured.

The values below come from patent publication US20120214847A1, “2-[1-PHENYL-5-HYDROXY-4a-SUBSTITUTED-HEXAHYDROCYCLOPENTA[F]INDAZOL-5-YL]ETHYL PHENYL DERIVATIVES AS GLUCOCORTICOID RECEPTOR LIGANDS” (Merck Sharp & Dohme Corp., priority 2009, published 2012).

As to `CC[C@]12Cc3cnn(-c4cccnc4)c3C=C1CC[C@@]2(O)CCc1cccc(F)c1C(N)=O` [Example 14, 2-{2-[(4aS,5R)-4a-Ethyl-5-hydroxy-1-(pyridin-3-yl)-1,4,4a,5,6,7-hexahydrocyclopenta[f]indazol-5-yl]ethyl}-6-fluorobenzamide], the Emax (as a rule, the greatest response seen or fitted, relative to the assay's reference) was found to be 51% and the EC50 was determined as 88 nM.
For the molecule `CC[C@]12Cc3cnn(-c4ccc(F)cc4)c3C=C1CC[C@@]2(O)CCc1ccccc1C(O)C(N)=O` (stereo partly drawn) [Example 26, 2-(2-{2-[(4aS,5R)-4a-Ethyl-1-(4-fluorophenyl)-5-hydroxy-1,4,4a,5,6,7-hexahydrocyclopenta[f]indazol-5-yl]ethyl}phenyl)-2-hydroxyacetamide], the “Transactivation A549 Cells Grammer Emax (%)” value is recorded as 58% and the EC50 amounted to 161 nM.
As for `CC[C@]12Cc3cnn(-c4ccc(F)cc4)c3C=C1CC[C@@]2(O)CCc1ncccc1C(N)=O` [Example 52, 2-{2-[(4aS,5R)-4a-Ethyl-1-(4-fluorophenyl)-5-hydroxy-1,4,4a,5,6,7-hexahydrocyclopenta[f]indazol-5-yl]ethyl}pyridine-3-carboxamide], the Emax stood at 59% and the EC50 is 64 nM.
The corresponding values for `CS(=O)(=O)c1ccccc1CC[C@]1(O)CCC2=Cc3c(cnn3-c3ccc(F)cc3)C[C@@]21C1CC1` [Example 58, (4aR,5R)-4a-Cyclopropyl-1-(4-fluorophenyl)-5-{2-[2-(methylsulfonyl)phenyl]ethyl}-1,4,4a,5,6,7-hexahydrocyclopenta[f]indazol-5-ol] are 11% and 9 nM.
Taken in the same sequence, the figures for `CC[C@]12Cc3cnn(-c4cccc(F)c4)c3C=C1CC[C@@]2(O)CCc1ccccc1C(N)=O` [Example 11, 2-{2-[(4aS,5R)-4a-Ethyl-1-(3-fluorophenyl)-5-hydroxy-1,4,4a,5,6,7-hexahydrocyclopenta[f]indazol-5-yl]ethyl}benzamide] were 41% and 83 nM.
As to `NC(=O)c1cccnc1CC[C@]1(O)CCC2=Cc3c(cnn3-c3ccc(F)cc3)C[C@@]21C1CC1` [Example 1, 2-{2-[(4aR,5R)-4a-Cyclopropyl-1-(4-fluorophenyl)-5-hydroxy-1,4,4a,5,6,7-hexahydrocyclopenta[f]indazol-5-yl]ethyl}pyridine-3-carboxamide], the Emax turned out to be 27% and the EC50 turned out to be 61 nM.
The corresponding values for `N#Cc1ccccc1CC[C@]1(O)CCC2=Cc3c(cnn3-c3cccnc3)C[C@@]21C1CC1` [Example 30, 2-{2-[(4aR,5R)-4a-Cyclopropyl-5-hydroxy-1-(pyridin-3-yl)-1,4,4a,5,6,7-hexahydrocyclopenta[f]indazol-5-yl]ethyl}benzonitrile] are 4% and 126 nM.
Turning to `O=S(=O)(c1ccccc1CC[C@]1(O)CCC2=Cc3c(cnn3-c3ccc(F)cc3)C[C@@]21C1CC1)C1CC1` [Example 63, (4aR,5R)-4a-Cyclopropyl-5-{2-[2-(cyclopropylsulfonyl)phenyl]ethyl}-1-(4-fluorophenyl)-1,4,4a,5,6,7-hexahydrocyclopenta[f]indazol-5-ol], the Emax was determined as 5% and the EC50 was found to be 42 nM.
Consider `CC(C)(CO)NC(=O)c1ccccc1CC[C@]1(O)CCC2=Cc3c(cnn3-c3ccc(F)cc3)C[C@@]21C1CC1` [Example 45, 2-{2-[(4aR,5R)-4a-Cyclopropyl-1-(4-fluorophenyl)-5-hydroxy-1,4,4a,5,6,7-hexahydrocyclopenta[f]indazol-5-yl]ethyl}-N-(1-hydroxy-2-methylpropan-2-yl)benzamide], for which the Emax was determined as 39% and the EC50 was determined as 22 nM.
The corresponding values for `CC[C@]12Cc3cnn(-c4ccccc4)c3C=C1CC[C@@]2(O)CC(O)c1cc(C#N)ccn1` (stereo partly drawn) [Example 75, 2-{2-[(4aS,5R)-4a-Ethyl-5-hydroxy-1-phenyl-1,4,4a,5,6,7-hexahydrocyclopenta[f]indazol-5-yl]-1-hydroxyethyl}pyridine-4-carbonitrile] are 10% and 106 nM.
For the molecule `NC(=O)C(O)c1ccccc1CC[C@]1(O)CCC2=Cc3c(cnn3-c3ccc(F)cc3)C[C@@]21C1CC1` (single isomer, unassigned) [Example 3b], the “Transactivation A549 Cells Grammer Emax (%)” value came out at 19% and the EC50 turned out to be 108 nM.
`CC[C@]12Cc3cnn(-c4ccc(F)cc4)c3C=C1CC[C@@]2(O)CCc1cncc(F)c1` [Example 21, (4aS,5R)-4a-Ethyl-1-(4-fluorophenyl)-5-[2-(5-fluoropyridin-3-yl)ethyl]-1,4,4a,5,6,7-hexahydrocyclopenta[f]indazol-5-ol]: the Emax turned out to be 31% and the EC50 amounted to 76 nM.
On to `CC[C@]12Cc3cnn(-c4ccc(F)cc4)c3C=C1CC[C@@]2(O)CCc1ccc(F)cn1` [Example 19, (4aS,5R)-4a-Ethyl-1-(4-fluorophenyl)-5-[2-(5-fluoropyridin-2-yl)ethyl]-1,4,4a,5,6,7-hexahydrocyclopenta[f]indazol-5-ol], for which the Emax came to 18% and the EC50 turned out to be 156 nM.
Taken in the same sequence, the figures for `Cc1ccnc(CC[C@]2(O)CCC3=Cc4c(cnn4-c4ccc(F)cc4)C[C@@]32C2CC2)c1` [Example 36, (4aR,5R)-4a-Cyclopropyl-1-(4-fluorophenyl)-5-[2-(4-methylpyridin-2-yl)ethyl]-1,4,4a,5,6,7-hexahydrocyclopenta[f]indazol-5-ol] were 11% and 59 nM.
Turning to `CC[C@]12Cc3cnn(-c4ccc(F)cc4)c3C=C1CC[C@@]2(O)CC(O)c1ccc(F)cn1` (single isomer, unassigned) [Example 69b], the “Transactivation A549 Cells Grammer Emax (%)” value came out at 26% and the EC50 was 113 nM.
In the case of `O=C(NC1(CO)CC1)c1ccccc1CC[C@]1(O)CCC2=Cc3c(cnn3-c3ccc(F)cc3)C[C@@]21C1CC1` [Example 46, 2-{2-[(4aR,5R)-4a-Cyclopropyl-1-(4-fluorophenyl)-5-hydroxy-1,4,4a,5,6,7-hexahydrocyclopenta[f]indazol-5-yl]ethyl}-N-[1-(hydroxymethyl)cyclopropyl]benzamide], the Emax worked out at 34% and the EC50 came to 20 nM.
As for `CC[C@]12Cc3cnn(-c4ccc(F)cc4)c3C=C1CC[C@@]2(O)CC(O)c1c(F)ccnc1Cl` (stereo partly drawn) [Example 74, (4aS,5R)-5-[2-(2-Chloro-4-fluoropyridin-3-yl)-2-hydroxyethyl]-4a-ethyl-1-(4-fluorophenyl)-1,4,4a,5,6,7-hexahydrocyclopenta[f]indazol-5-ol], the Emax amounted to 41% and the EC50 stood at 65 nM.
